Reference: patent US12528760B2 (DOMPÉ FARMACEUTICI S.P.A., priority 2019, dated 2026)
≈ marks a conversion by molar mass, not a printed value.

Test: Solubility of Lysine in 2-Methyl-1-propanol
Assay type: physicochemical
Settings: organic solvent or mixture

For `NCCCC[C@H](N)C(=O)O` [Lysine], the solubility was about 26 mg/mL (≈ 178 mM).
